Laboratory results as given in PubChem BioAssay (NCI).
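Step 1: Grow cells in 96-well plates. Step 2: Expose to compound for 48 hours at 5 concentrations. Step 3: Interpolate endpoints linearly; if unreached, use highest concentration. At the GI50, growth is halved. TGI is the concentration that stops growth completely.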 Where a SMILES comes first, the peptide text is derived from it. [ ]: non-standard residue; d: D form. The star is where a group is joined. Ac5c = NC1(C(=O)O)CCCC1; Cbz = O=C(OCc1ccccc1)*; Boc = CC(C)(C)OC(=O)*; tBu = CC(C)(C)*

Columns and labels:
Experiment in all cases: NCI-60 cell line screen, 48 h
[1] = test system: 786-0 renal
[2] = test system: A498 renal
[3] = test system: A549 NSCLC
[4] = test system: ACHN renal
[5] = test system: BT-549 breast
[6] = test system: CCRF-CEM leukemia
[7] = test system: COLO 205 colon
[8] = test system: DU-145 prostate
[9] = test system: EKVX NSCLC
[10] = test system: HCC-2998 colon
[11] = test system: HCT-116 colon
[12] = test system: HCT-15 colon
[13] = test system: HL-60(TB) leukemia
[14] = test system: HOP-62 NSCLC
[15] = test system: HOP-92 NSCLC
[16] = test system: HT29 colon
[17] = test system: IGROV1 ovarian
[18] = test system: K-562 leukemia
[19] = test system: KM12 colon
[20] = test system: LOX IMVI melanoma
[21] = test system: M14 melanoma
[22] = test system: MALME-3M melanoma
[23] = test system: MCF7 breast
[24] = test system: MDA-MB-231 breast
[25] = test system: MDA-MB-435
[26] = test system: MOLT-4 leukemia
[27] = test system: NCI-H226 lung
[28] = test system: NCI-H23 lung
[29] = test system: NCI-H460 lung
[30] = test system: NCI/ADR-RES ovarian
[31] = test system: OVCAR-3 ovarian
[32] = test system: OVCAR-4 ovarian
[33] = test system: OVCAR-5 ovarian
[34] = test system: OVCAR-8 ovarian
[35] = test system: PC-3 prostate
[36] = test system: RPMI-8226 leukemia
[37] = test system: RXF 393 renal
[38] = test system: SF-268 CNS
[39] = test system: SF-295 CNS
[40] = test system: SF-539 CNS
[41] = test system: SK-MEL-28 melanoma
[42] = test system: SK-MEL-5 melanoma
[43] = test system: SK-OV-3 ovarian
[44] = test system: SN12C renal
[45] = test system: SNB-19 CNS
[46] = test system: SNB-75 CNS
[47] = test system: SR leukemia
[48] = test system: SW-620 colon
[49] = test system: T-47D breast
[50] = test system: TK-10 renal
[51] = test system: U251 CNS
[52] = test system: UACC-257 melanoma
[53] = test system: UACC-62 melanoma
[54] = test system: UO-31 renal

`Oc1ccc(-c2nc(-c3ccc(F)cc3)c(-c3ccncc3)[nH]2)cc1` was tested, and the GI50 [1] was 12.5 µM, the TGI [1] was > 100 µM and the GI50 [2] was 16.7 µM. For the same molecule, the TGI [2] was 48.5 µM, the GI50 [3] was 25.8 µM and the TGI [3] was > 100 µM. For the same molecule, the GI50 [4] was 3.97 µM, the TGI [4] was > 100 µM and the GI50 [5] was 17.7 µM. For the same molecule, the TGI [5] was 64 µM, the GI50 [6] was 9.62 µM and the TGI [6] was 59.8 µM. The GI50 [7] was 4.77 µM, the TGI [7] was 40.5 µM and the GI50 [8] was 15.4 µM. For the same molecule, the TGI [8] was > 100 µM, the GI50 [9] was 13.6 µM and the TGI [9] was > 100 µM. The GI50 [10] was 36.7 µM, the TGI [10] was > 100 µM and the GI50 [11] was 17.4 µM. The TGI [11] was 53 µM, the GI50 [12] was 13.2 µM and the TGI [12] was > 100 µM. For the same molecule, the GI50 [13] was 18.1 µM, the TGI [13] was 67.1 µM and the GI50 [14] was 36.7 µM. The TGI [14] was > 100 µM, the GI50 [15] was 17.2 µM and the TGI [15] was > 100 µM. For the same molecule, the GI50 [16] was 3.78 µM, the TGI [16] was > 100 µM and the GI50 [17] was 4.3 µM. The TGI [17] was 29.4 µM, the GI50 [18] was 15.9 µM and the TGI [18] was > 100 µM. For the same molecule, the GI50 [19] was 23 µM, the TGI [19] was 72.3 µM and the GI50 [20] was 28.6 µM. For the same molecule, the TGI [20] was > 100 µM, the GI50 [21] was 4.02 µM and the TGI [21] was 20.3 µM. For the same molecule, the GI50 [22] was 2.45 µM, the TGI [22] was 9.13 µM and the GI50 [23] was 19.4 µM. For the same molecule, the TGI [23] was > 100 µM, the GI50 [24] was 11.2 µM and the TGI [24] was > 100 µM. It also gave a GI50 [25] of 6.8 µM, a TGI [25] of 35.1 µM and a GI50 [26] of 7.97 µM. The TGI [26] was 32.5 µM, the GI50 [27] was 28.3 µM and the TGI [27] was > 100 µM. The GI50 [28] was 36.2 µM, the TGI [28] was > 100 µM and the GI50 [29] was 18.8 µM. For the same molecule, the TGI [29] was 59.7 µM, the GI50 [30] was 35.6 µM and the TGI [30] was > 100 µM. For the same molecule, the GI50 [31] was 15 µM, the TGI [31] was 86.9 µM and the GI50 [32] was 16.5 µM. For the same molecule, the TGI [32] was > 100 µM, the GI50 [33] was 59.3 µM and the TGI [33] was > 100 µM. For the same molecule, the GI50 [34] was 22.1 µM, the TGI [34] was > 100 µM and the GI50 [35] was 14.1 µM. The TGI [35] was > 100 µM, the GI50 [36] was 11.7 µM and the TGI [36] was 38.2 µM. The GI50 [37] was 8.92 µM, the TGI [37] was 43.2 µM and the GI50 [38] was 19.3 µM. For the same molecule, the TGI [38] was > 100 µM, the GI50 [39] was 20.2 µM and the TGI [39] was > 100 µM. For the same molecule, the GI50 [40] was 25.7 µM, the TGI [40] was > 100 µM and the GI50 [41] was 6.05 µM. The TGI [41] was 84.7 µM, the GI50 [42] was 4.73 µM and the TGI [42] was 29.6 µM. It also gave a GI50 [43] of 5.21 µM, a TGI [43] of 80.3 µM and a GI50 [44] of 14.9 µM. The TGI [44] was > 100 µM, the GI50 [45] was 35.3 µM and the TGI [45] was > 100 µM. For the same molecule, the GI50 [46] was 8.86 µM, the TGI [46] was > 100 µM and the GI50 [47] was 6.98 µM. For the same molecule, the TGI [47] was 52.8 µM, the GI50 [48] was 32.1 µM and the TGI [48] was > 100 µM. It also gave a GI50 [49] of 8.75 µM, a TGI [49] of 63 µM and a GI50 [50] of 7.89 µM. For the same molecule, the TGI [50] was > 100 µM, the GI50 [51] was 25.5 µM and the TGI [51] was > 100 µM. For the same molecule, the GI50 [52] was 13.9 µM, the TGI [52] was 63.1 µM and the GI50 [53] was 3 µM. For the same molecule, the TGI [53] was 15.1 µM, the GI50 [54] was 3.44 µM and the TGI [54] was 20.2 µM.

`COC(=O)C1(NC(=O)C(Cc2ccccc2)NC(=O)C(NC(=O)C(CCCCNC(=O)OC(C)(C)C)NC(=O)C(Cc2c[nH]c3ccccc23)NC(=O)C(Cc2ccccc2)NC(=O)OCc2ccccc2)C(C)OC(C)(C)C)CCCC1` (configuration not stated) (Cbz-FWK(Boc)T(tBu)F[Ac5c]-OMe; configuration not given here) was tested, and the TGI [15] was > 100 µM, the TGI [27] was > 100 µM and the TGI [28] was > 100 µM. For the same molecule, the TGI [52] was > 100 µM.
